The record followed here is patent US20140206737A1 (Beijing Zhongwei Shennong Chronic Disease Medical Research …, priority 2013, published 2014).

Where a name gives a salt, the structure may show the parent alone.

In data set [1] the test system is opioid dependent participants. As to the kind of experiment: Treatment of heroin addiction: clinical rating of withdrawal symptoms. It counts as in vivo, human. From the text:
(§1) 1.1. Subject selection criteria: 60 participants, in the range of 18-50 years of age, male or female, and opioid dependent as diagnosed according to the DSM-IV diagnostic criteria for opioid dependence.
Subject exclusion criteria: candidates with serious heart disease, liver or kidney dysfunction, mental illness, serious bodily weakness, or pregnant or lactating women were excluded.
(§2) 1.3. Grouping: 60 cases of participants were randomly divided into two groups according to the order of admission: the test group and the methadone control group.
(§3) The control group used methadone hydrochloride oral medication of 10 mg/10 ml each. Comparison method: according to the heroin-dependent self-restraining degree of 7-10 days, the treatment was designed to be 10 days long for both groups. […] The treatment concluded on day 10. Methadone control group was admitted 50-60 mg methadone on the first day; starting on day 2, the methadone dose was reduced by 10 mg per day each day; starting on day 6, the methadone dose was reduced by 2 mg per day each day. The treatment concluded on day 10. Supplementary drugs used in the two groups included normal doses of clonazepam tablets (clonazopam), alprazolam tablets (Alprazoli) once a day at night.
1.5.1. Clinical rating used indicators of withdrawal, which has 20 indicators including craving, anxiety, agitation, nausea, vomiting, hot face, chills, or alternating chills and fever, yawning, runny nose, tears, sweating, drowsiness, cutis anserina, tremors, bone and muscle pain, anorexia, abdominal pain, diarrhea, insomnia, and curled position. The rating was done daily on the day before the treatment and on each day during the treatment. The severity of withdrawal symptoms was scored as level 0-4 (five levels in total). Scoring for each participant was done at 9:00 am every day.
(§4) 1.6. Statistical analysis of the two groups: the general characteristics, withdrawal symptoms, and anxiety symptoms of the two groups, were statistically analyzed using the t test, chi-square test and Fisher's Exact Test, using suitable software such as SPSS 7.0. The t test was applied to the symptom data of the two groups, and chi-square test or Fisher's Exact Test was applied to the count data.

Data set [2] relates to opioid dependent participants. The experiment in a line: Treatment of heroin addiction: adverse reactions and side effects. Particulars: 10-day treatment. Here is the method: as §1, §2, §3
1.5.2. Recordation of adverse reactions: adverse reactions were evaluated in the withdrawal symptom measurement table, using a total of 10 indicators that include: dizziness, syncope, malaise, nausea, vomiting, sweating, dry mouth, drowsiness, blurred vision, disturbance of consciousness. The recordation was done each morning at 9:00.
as §4

Data set [3] concerns opioid dependent participants. The experiment in a line: Treatment of heroin addiction: degree of anxiety by Hamilton Anxiety Scale (HAMA). The data set is classed as in vivo, human. To be noted: Day 5. Here is the method: as §1, §2, §3
1.5.3. […]
1.6. Statistical analysis of the two groups: the general characteristics, withdrawal symptoms, and anxiety symptoms of the two groups, were statistically analyzed using the t test, chi-square test and Fisher's Exact Test, using suitable software such as SPSS 7.0. […]

Regarding `CCC(=O)C(CC(C)N(C)C)(c1ccccc1)c1ccccc1` (stereo not drawn) [Methadone, methadone hydrochloride], the “withdrawal symptoms (x ± s)” value was determined as 56.03 ± 1.80 in data set [1] (Before treatment, 20 indicators scored level 0-4, 30 per group); 5.01 ± 0.83 in data set [1] (Day 1 of treatment); 27.78 ± 1.40 in data set [1] (Day 2 of treatment); 19.71 ± 1.13 in data set [1] (Day 3 of treatment); 13.54 ± 1.01 in data set [1] (Day 4 of treatment); 8.27 ± 0.28 in data set [1] (Day 5 of treatment). Moreover, the “withdrawal symptoms (x ± s)” value in data set [1] (Day 6 of treatment) stood at 3.84 ± 0.06; in data set [1] (Day 7 of treatment), 3.26 ± 0.27; in data set [1] (Day 8 of treatment), 3.84 ± 0.07; in data set [1] (Day 9 of treatment), 3.82 ± 0.18; in data set [1] (Day 10 of treatment), 4.80 ± 0.11. The “Adverse Reactions: Abdominal pain” value in data set [2] (count, 30 per group) was 6. In data set [2] (count, 30 per group), the “Adverse Reactions: Chills” value amounted to 7. Besides, the “Adverse Reactions: Diarrhea” value in data set [2] (count, 30 per group) amounted to 3. The “Adverse Reactions: Runny nose” value in data set [2] (count, 30 per group) is 8. For the same compound, in data set [2] (count, 30 per group), the “Adverse Reactions: Tears” value stood at 8. For the same compound, in data set [2] (heroin addiction study), the Side effects entry is “dizziness, malaise, nausea, sweating and heart palpitations”. The “emotional changes measured by HAMA (x ± s)” value in data set [3] is recorded as 8.83 ± 0.45.
